Measurements taken from patent publication US4098781A, “Polypeptides with morphine-like activity” (American Home Products Corporation, priority 1977, dated 1978).
Peptide text beside a SMILES is read from it.

Key:
rats [1] = test: rat-tail flick method, intracerebroventricular injection; assay type: in vivo; parameters: Mean Latency ± SEM Baseline / Mean Latency ± SEM Drug: unit not given here; conditions: lateral ventricle; for Mean Latency ± SEM Baseline / Mean Latency ± SEM Drug: rat-tail flick; for Mean Latency ± SEM Baseline: baseline before drug; for Mean % Change ± SEM: change in latency (drug minus baseline)
Description: In this test method, which is a standard test for analgesia, a light beam is focused on the tip of the rat's tail, and the pain threshold of the animal is measured by the latency of the rat to remove his tail from the noxious heat source. When tested by the rat-tail flick method by intracerebroventricular injection, according to the procedure of Belluzzi et al., Nature, 260, 625 (1976), the polypeptides of this invention produced the effects set forth in Table I.
*All drugs were dissolved in […]. of Ringer's solution and injected int
the lateral ventricle through permanently-indwelling cannulae.

rats [2] = conditions: injection in the brain ventricle; cited from earlier work

CSCC[C@H](NC(=O)[C@H](Cc1ccccc1)NC(=O)CNC(=O)CNC(=O)[C@@H](N)Cc1ccc(O)cc1)C(=O)O [Methionine-Enkephalin, H-Tyr-Gly-Gly-Phe-Met-OH, reference compound]
Mean Latency ± SEM Baseline (rats [1]; dose group 100 μg): 3.83 ± 0.14 | analgesia (rats [2]): induce a profound analgesia that is fully reversible by naloxone

CSCC[C@H](NC(=O)[C@H](Cc1ccccc1)NC(=O)CNC(=O)CNC(=O)[C@H](Cc1ccc(O)cc1)NC(=O)[C@@H](N)CCCNC(=N)N)C(=O)N[C@H](C(=O)N[C@@H](CO)C(=O)O)[C@@H](C)O [L-Arginyl-L-Tyrosyl-Glycyl-Glycyl-L-Phenylalanyl-L-Methionyl-L-Threonyl-L-Serine] (H-RYGGFMTS-OH)
Mean % Change ± SEM (rats [1]; dose 25 μg, 1 rat): 69.60% | Mean % Change ± SEM (rats [1]; dose 50 μg): 74.13 ± 15.56% | Mean % Change ± SEM (rats [1]; dose 100 μg): 55.13 ± 51.71% | Mean Latency ± SEM Baseline (rats [1]; dose group 25 μg, 1 rat): 3.54 | Mean Latency ± SEM Baseline (rats [1]; dose group 50 μg): 3.55 ± 0.13 | Mean Latency ± SEM Baseline (rats [1]; dose group 100 μg): 3.43 ± 0.05 | Mean Latency ± SEM Drug (rats [1]; dose 25 μg, 1 rat): 6.01 | Mean Latency ± SEM Drug (rats [1]; dose 50 μg): 6.18 ± 0.55 | Mean Latency ± SEM Drug (rats [1]; dose 100 μg): 5.29 ± 1.10

CN1CC[C@]23c4c5ccc(O)c4O[C@H]2[C@@H](O)C=C[C@H]3[C@H]1C5 [Morphine]
Mean Latency ± SEM Baseline (rats [1]; dose group 10 μg): 3.96 ± 0.42
